Values after ≈ are worked out from the molar mass of the structure shown. Like-named read-outs stand apart in the source and are kept apart here. Blank lines part the entries; values can stand above or below the compound they belong to.
Key:
physchem [1] = format: physicochemical
Experimental: A 0.005 M citric acid solution containing 0.2% sodium lauryl sulfate and 0.001% calcium EDTA was adjusted to a pH of about 4.73.
The solutions were then mixed, maintained at room temperature, and shaken on a rotary shaker for about 24 to about 48 hours.
Samples (2 mL) of both the amorphous and crystalline solutions were withdrawn at 24 h and 48 h, filtered through a 0.2 μm filter and analyzed at room temperature using high performance liquid chromatography (HPLC) (Table 4). Solubilities of the samples were then calculated using the data provided in the HPLC chromatograph and techniques used by those of skilled in the art and is provided in Table 4.

physchem [2] = format: physicochemical; conditions: for Solubility: pH 4.6
Experimental: The solutions were mixed and maintained at room temperature and a pH of about 4.6. The vials were then shaken on a rotary shaker for 24 hours.
Samples (2 mL) of both of the amorphous and crystalline solutions were withdrawn at selected time intervals (0, 0.5, 3, 5, and 24 h), filtered through a 0.2 μm filter and analyzed at room temperature using high performance liquid chromatography (HPLC) (Table 1). The solubility of the samples was calculated using the data provided in the HPLC chromatograph and techniques used by those skilled in the art and is provided in Table 3.

[3] = 5° C., 1 Week, sample prepared by precipitation
[4] = 40° C./75% RH, 1 Week, sample prepared by precipitation
[5] = Initial, sample prepared by precipitation
[6] = RT, 1 Week, sample prepared by precipitation
[7] = 25 °C, pH 4.73, aqueous with cosolvent or surfactant or cyclodextrin, thermodynamic from solid
[8] = 25 °C, pH 4.6, aqueous buffer, thermodynamic from solid
[9] = 5° C., 1 week, sample prepared by evaporation
[10] = 5° C., 2 weeks, sample prepared by evaporation
[11] = 40° C./75% RH, 1 week, sample prepared by evaporation
[12] = 40° C./75% RH, 2 weeks, sample prepared by evaporation
[13] = Initial, sample prepared by evaporation

SLI [3]: 0.15%
Strength [3]: 98.71%
Total Imp [3]: 0.44%
SECO [4]: 0.04%
SLI [4]: 0.32%
Strength [4]: 91.36%
Total Imp [4]: 0.70%
SLI [5]: 0.20%
Strength [5]: 97.93%
Total Imp [5]: 0.41%
SLI [6]: 0.12%
Strength [6]: 97.49%
Total Imp [6]: 0.37%
Compound: COC1CC2CCC(C)C(O)(O2)C(=O)C(=O)N2CCCCC2C(=O)OC(C(C)CC2CCC(OC(=O)C(C)(CO)CO)C(OC)C2)CC(=O)C(C)/C=C(\C)C(O)C(OC)C(=O)C(C)CC(C)/C=C/C=C/C=C/1C (centres unmarked) [Amorphous (batch C4), rapamycin 42-ester with 3-hydroxy-2-(hydroxymethyl)-2-methylpropionic acid]

solubility at 24 h (physchem [1]; [7]): 640 µg/mL (≈ 621 µM)
solubility at 48 h (physchem [1]; [7]): 640 µg/mL (≈ 621 µM)
Solubility (physchem [2]; 0 h): 0 µg/mL
solubility at 0.5 h (physchem [2]; [8]): 0.26 µg/mL (≈ 0.252 µM)
solubility at 3 h (physchem [2]; [8]): 0.29 µg/mL (≈ 0.281 µM)
solubility at 5 h (physchem [2]; [8]): 0.23 µg/mL (≈ 0.223 µM)
solubility at 24 h (physchem [2]; [8]): 0.61 µg/mL (≈ 0.592 µM)
Compound: CO[C@H]1C[C@@H]2CC[C@@H](C)[C@@](O)(O2)C(=O)C(=O)N2CCCC[C@H]2C(=O)O[C@H]([C@H](C)C[C@@H]2CC[C@@H](OC(=O)C(C)(CO)CO)[C@H](OC)C2)CC(=O)[C@H](C)/C=C(\C)[C@@H](O)[C@@H](OC)C(=O)[C@H](C)C[C@H](C)/C=C/C=C/C=C/1C [Crystalline, rapamycin 42-ester with 3-hydroxy-2-(hydroxymethyl)-2-methylpropionic acid]

Solubility relative to crystalline form (physchem [1]): about 3.5 times
Solubility (physchem [1]; pH 4.73): about 2.17 mg/mL
Solubility relative to crystalline form (physchem [2]): 3 times
Solubility relative to crystalline form (general statement) (physchem [2]): at least 3 times
Solubility (physchem [2]): about 1.88 μg/mL
Temperature up to which the amorphous form is stable: up to 5 °C
Compound: COC1CC2CCC(C)C(O)(O2)C(=O)C(=O)N2CCCCC2C(=O)OC(C(C)CC2CCC(OC(=O)C(C)(CO)CO)C(OC)C2)CC(=O)C(C)/C=C(\C)C(O)C(OC)C(=O)C(C)CC(C)/C=C/C=C/C=C/1C (centres unmarked) [amorphous rapamycin 42-ester with 3-hydroxy-2-(hydroxymethyl] [rapamycin 42-ester with 3-hydroxy-2-(hydroxymethyl)-2-methylpropionic acid]

SLI* [9]: 3.91%
Strength [9]: 95.20%
Total Imp [9]: 5.07%
SLI* [10]: 3.74%
Strength [10]: 92.56%
Total Imp [10]: 4.42%
SLI* [11]: 3.93%
Strength [11]: 94.16%
Total Imp [11]: 5.15%
SLI* [12]: 3.72%
Strength [12]: 90.55%
Total Imp [12]: 4.60%
SLI [13]: 0.19%
Strength [13]: Strength = 98.33%,
Total Imp [13]: 0.46%
Compound: CO[C@H]1C[C@@H]2CC[C@@H](C)[C@@](O)(O2)C(=O)C(=O)N2CCCC[C@H]2C(=O)O[C@H]([C@H](C)C[C@@H]2CC[C@@H](OC(=O)C(C)(CO)CO)[C@H](OC)C2)CC(=O)[C@H](C)/C=C(\C)[C@@H](O)[C@@H](OC)C(=O)[C@H](C)C[C@H](C)/C=C/C=C/C=C/1C [batch A1, rapamycin 42-ester with 3-hydroxy-2-(hydroxymethyl)-2-methylpropionic acid]
